The test system of series [1] is CHO-GFP cells. Nature of the series: Cell viability assay (1), MTS. The class given is cell-based. Here is the method: FIG. 3 depicts cell viabilities of 1, 2, 3, Chol-PVA-PEG and Chol-PVA-PEG+1 host:guest pendant polymer complexes in CHO-GFP cells using 25 kD bPEI as control.
The cytotoxicity of the amino-CD derivatives in comparison with bPEI (25 kDa) was evaluated using the MTS assay in CHO-GFP cell lines. The relative cell viabilities were measured as a function of amine densities of the polymers. […] After 24 h, culture media were replaced with serum-free culture media containing increasing amine concentrations of amino-CD, polymer and the polymer:CD complexes and the cells were incubated for 24 h. After 24 h, 15 μl of MTS reagent was added to each well and incubated for 2 h. […] All experiments were conducted for three samples and averaged. […] In this study, LD50 was the concentration of a gene carrier at which the relative cell viability decreased to 50%.

For series [2], the system named is pDNA. The experiment in a line: Gel shift assay. The settings on record: various N:P ratios, compared among 4, 5, 6. The class given is binding. How it is done:
The complexation ability of the systems was studied by gel shift assay. Agarose gels (1% w/v) containing ethidium bromide were made in 1× TE buffer. Transfection complexes were loaded onto the gel at various N:P ratios and 200 ng of DNA added to the wells. The gels were run at 50 V for about 1 h and visualized.
Also, in the absence of polymer, higher N:P ratios were used to condense pDNA effectively. […] This improved condensation capability of 6 relative to 4 and 5 can be attributed to the availability of both the nitrogens on the hydrazine moiety for interaction with pDNA.
(In general: A gel shift assay detects complexes by their altered migration in electrophoresis.)

Each structure is given as a SMILES string.

In turn, `CNCCN(C)C[C@H]1O[C@@H]2O[C@H]3[C@H](O)[C@@H](O)[C@@H](O[C@H]4[C@H](O)[C@@H](O)[C@@H](O[C@H]5[C@H](O)[C@@H](O)[C@@H](O[C@H]6[C@H](O)[C@@H](O)[C@@H](O[C@H]7[C@H](O)[C@@H](O)[C@@H](O[C@H]8[C@H](O)[C@@H](O)[C@@H](O[C@H]1[C@H](O)[C@H]2O)O[C@@H]8CO)O[C@@H]7CO)O[C@@H]6CO)O[C@@H]5CO)O[C@@H]4CO)O[C@@H]3CO` [Compound 2, Mono-6-(N,N′-dimethylethane-1,2-diamine)-6-deoxy-β-cyclodextrin] came in with an LD50 in series [1] above 10 mM.
For the compound `NNC[C@H]1O[C@@H]2O[C@H]3[C@H](O)[C@@H](O)[C@@H](O[C@H]4[C@H](O)[C@@H](O)[C@@H](O[C@H]5[C@H](O)[C@@H](O)[C@@H](O[C@H]6[C@H](O)[C@@H](O)[C@@H](O[C@H]7[C@H](O)[C@@H](O)[C@@H](O[C@H]8[C@H](O)[C@@H](O)[C@@H](O[C@H]1[C@H](O)[C@H]2O)O[C@@H]8CNN)O[C@@H]7CNN)O[C@@H]6CNN)O[C@@H]5CNN)O[C@@H]4CNN)O[C@@H]3CNN` [Compound 6, hepta-6-hydrazyl-β-CD], the “capacity for condensing pDNA” value in series [2] was “greatest capacity for condensing pDNA”.

(Values after patent US9526802B2, “Nucleic acid complexes” (Purdue Research Foundation, priority 2012, dated 2016).)
